Results on 3 compounds are retold here after patent US20110060267A1 (priority 2008, published 2011).

The structures appear in SMILES notation.

One data set has as its system porcine cornea. Kind of data set: Stress-strain analysis of corneal buttons after photoinitiator and UV exposure.
The test system of another data set is post-LASIK ectasia. Kind of data set: Treatment for post-LASIK ectasia with photoinitiator and UV irradiation. It counts as in vivo. The note with it: 0.35M sodium persulfate drops; one 10-second UV burst 1000 mW. On the procedure:
A subject is diagnosed with ectasia following a LASIK procedure. […] Mechanical stability is measured using the Reichert Ocular Response Analyzer. CH values correlate with reduced mechanical stability. Pachymetry of the cornea measures a corneal stromal thickness of 300 microns or less in areas of the cornea, indicative of post-LASIK ectasia. The subject is chosen to receive treatment using short wavelength ultraviolet irradiation following administration of a low concentration photoinitiator. Drops of 0.35M sodium persulfate in 0.02M sodium phosphate buffer at a pH of 7.6-8.0 are administered to the cornea in an applicator designed to limit exposure to the location of keratoconus on the corneal surface. The cornea is then exposed to one 10-second burst of ultraviolet irradiation at an intensity of 1000 mW.

The test system of data set [1] is cornea following orthokeratology lens wear. Kind of data set: Corneal stabilization following orthokeratology lens wear. Format: in vivo. The note with it: treated eye compared to untreated control eye; 0.35M sodium persulfate; one 10-second UV burst 1000 mW. From the text:
Subjects are fitted with lenses for orthokeratology. The subjects have one (1) eye treated by exposure to ultraviolet irradiation following pretreatment with a photoinitiator. The contralateral eye is an untreated control. Selection of the eye to be treated is random. Examinations at the initial visit and at each follow-up include unaided visual acuity, slit-lamp examination, refractive error, corneal topography, and corneal hysteresis using the Reichert Ocular Response Analyzer. CH values correlate with reduced mechanical stability. The subject is chosen to receive treatment using short wavelength ultraviolet irradiation following administration of a low concentration photoinitiator. Drops of 0.35M sodium persulfate in 0.02M sodium phosphate buffer at a pH of 7.6-8.0 are administered to the cornea in an applicator designed to limit exposure to the corneal surface. The cornea is then exposed to one 10-second burst of ultraviolet irradiation at an intensity of 1000 mW.

For data set [2], the system named is keratoconus. Kind of data set: Treatment of keratoconus with photoinitiator and UV irradiation. It counts as in vivo. The note with it: 0.35M sodium persulfate drops; one 10-second UV burst 1000 mW. On the procedure: A subject is diagnosed with keratoconus in both eyes. They are not able to wear contact lenses. […] Corneal hysteresis measurements are made using the Reichert Ocular Response Analyzer. Corneal hysteresis (CH) is at least 3 numbers less than the normal population. Corneal topography is also conducted to identify the location of keratoconus. The subject is chosen to receive treatment using short wavelength ultraviolet irradiation following administration of a low concentration photoinitiator. Drops of 0.35M sodium persulfate in 0.02M sodium phosphate buffer at a pH of 7.6-8.0 are administered to the cornea in an applicator designed to limit exposure to the location of keratoconus on the corneal surface. The cornea is then exposed to one 10-second burst of ultraviolet irradiation at an intensity of 1000 mW.

A further data set has as its system cornea. The note with it: riboflavin drops, UVA 30 minutes, ablated cornea; cited from earlier work.
Data set [3] has as its system keratoconus. Particulars: 0.1% riboflavin drops, UVA 3 mW/cm 30 minutes, deepithelialized cornea; cited from earlier work.
For data set [4] the following is noted: buffer; cited from earlier work.

For the compound `O=S(=O)([O-])OOS(=O)(=O)[O-].[Na+].[Na+]` [sodium persulfate], the “low modulus following exposure to ultraviolet irradiation” value in the data set on porcine cornea (0.35M sodium persulfate 1 min, 10-second bursts UV 1000 mW, 310-400 nm, acetic anhydride softened cornea) is on record as “increased”. Also, the low modulus result with porcine cornea (four 10-second UV exposures) is given as “nearly equal to untreated control cornea”; in the data set on porcine cornea (subsequent UV exposures, FIG. 1) it was “reduced the increase in low modulus”. The “strengthening (low modulus)” value with porcine cornea (single 10-second UV exposure, FIG. 1) was “maximum”. The “corneal hysteresis (CH)” value was “two-fold increase” in the data set on post-LASIK ectasia and “increase” in the data set with keratoconus [2]. The vision entry with post-LASIK ectasia and in the data set on keratoconus [2] was “significant improvement” each time. Moreover, the “regression of visual acuity” value in data set [1] was “minimal to no regression”.
In the case of `Cc1cc2nc3c(=O)[nH]c(=O)nc-3n(C[C@H](O)[C@H](O)[C@H](O)CO)c2cc1C` [riboflavin], the corneal biomechanical stiffness entry with cornea is “significant increase”. Also, the “clinical treatment of keratoconus” value in the data set with keratoconus [3] is “successful”.
In the case of `CC(C#N)(CCC(=O)O)N=NC(C)(C#N)CCC(=O)O` (stereo not drawn) [4,4′-Azobis(4-cyanovaleric acid)], in data set [4], the “10th Half-life ° C. (Solvent)” value was 69 (water) ° C.
